Results published in US20260083865A1, “PROSTATE SPECIFIC MEMBRANE ANTIGEN (PSMA) LIGANDS AND USE THEREOF” (priority 2022, published 2026).
Where two headings read alike, the source gives them in different places. Each block holds one compound with its values, some of them ahead of it. Numbered stars: 1 amine (or outer) side, 2 acyl side, 3 side chain; on linkers, the order of the positions; unused ones are H or OH. Bridge positions count the residues as written; N and C are the ends. Square brackets hold non-standard residues; d marks the D form. Peptide text beside a SMILES is read from it. * marks the point of attachment. DOTA = O=C(O)CN1CCN(CC(=O)O)CCN(CC(=O)*)CCN(CC(=O)O)CC1; Phe(3-Cl) = N[C@@H](Cc1cccc(Cl)c1)C(=O)O; Phe(4-Cl) = N[C@@H](Cc1ccc(Cl)cc1)C(=O)O; X1 = O=C(CC1CCN([*:1])CC1)[*:2]; Cit = NC(=O)NCCC[C@H](N)C(=O)O; Tle = CC(C)(C)[C@H](N)C(=O)O; Deg = CCC(N)(CC)C(=O)O; Aib = CC(C)(N)C(=O)O; CO = O=C([*:1])[*:2]; NHBu = CCCCN*

What was measured:
[1] = target: T1, PSMA-expressing C4-2 cells (Homo sapiens, UniProt Q04609); assay: FACS binding assay (competition with 50 nM PSM-0183); details: for IC50: read-out: pIC50 [C4-2] CAT (converted)
T1 construct: PSMA-expressing C4-2 cells (ATCC, Cat. No. CRL-3314) were cultured in RPMI-1640; host or cells: C4-2 cells
T1 sequence (Q04609 whole entry): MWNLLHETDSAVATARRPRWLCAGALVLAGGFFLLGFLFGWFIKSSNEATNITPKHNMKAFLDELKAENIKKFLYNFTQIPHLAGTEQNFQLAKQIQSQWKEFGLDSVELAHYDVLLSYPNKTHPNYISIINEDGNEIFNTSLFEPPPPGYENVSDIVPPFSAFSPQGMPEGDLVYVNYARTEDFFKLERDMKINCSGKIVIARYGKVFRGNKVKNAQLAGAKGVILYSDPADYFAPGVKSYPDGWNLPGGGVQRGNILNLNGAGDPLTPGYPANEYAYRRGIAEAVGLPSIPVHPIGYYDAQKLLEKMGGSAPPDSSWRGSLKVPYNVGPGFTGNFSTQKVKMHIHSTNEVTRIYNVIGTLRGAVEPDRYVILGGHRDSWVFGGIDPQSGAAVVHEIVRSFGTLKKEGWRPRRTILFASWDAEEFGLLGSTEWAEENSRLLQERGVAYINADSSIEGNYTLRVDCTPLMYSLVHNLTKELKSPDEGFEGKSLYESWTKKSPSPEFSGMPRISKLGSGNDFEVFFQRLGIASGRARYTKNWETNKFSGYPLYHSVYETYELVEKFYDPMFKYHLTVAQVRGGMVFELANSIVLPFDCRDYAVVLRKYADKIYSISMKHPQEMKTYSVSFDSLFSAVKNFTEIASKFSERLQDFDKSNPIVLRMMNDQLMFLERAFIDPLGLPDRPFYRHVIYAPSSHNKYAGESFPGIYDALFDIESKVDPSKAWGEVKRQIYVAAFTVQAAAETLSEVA
Method in brief: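 Competition format: fluorescent tracer PSM-0183 (50 nM) displaced from PSMA on C4-2 cells by a test compound titration over 1 h at 4 °C. Bound tracer was quantified as flow-cytometric AF488 median fluorescence after washing. Four-parameter logistic fits of MFI data gave IC50 and pIC50.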

[2] = target: T2, Fc-fusion protein of human PSMA (hPSMA-Fc) (Homo sapiens, UniProt Q04609); assay: Surface plasmon resonance assay (Biacore T200, single cycle kinetic); format: binding; details: hPSMA-Fc, 25° C.; for Kd: read-out: pKD CAT (converted)
T2 construct: purchased Acro Biosystems PSA-H5264
T2 sequence (Q04609 44-750 limits assumed): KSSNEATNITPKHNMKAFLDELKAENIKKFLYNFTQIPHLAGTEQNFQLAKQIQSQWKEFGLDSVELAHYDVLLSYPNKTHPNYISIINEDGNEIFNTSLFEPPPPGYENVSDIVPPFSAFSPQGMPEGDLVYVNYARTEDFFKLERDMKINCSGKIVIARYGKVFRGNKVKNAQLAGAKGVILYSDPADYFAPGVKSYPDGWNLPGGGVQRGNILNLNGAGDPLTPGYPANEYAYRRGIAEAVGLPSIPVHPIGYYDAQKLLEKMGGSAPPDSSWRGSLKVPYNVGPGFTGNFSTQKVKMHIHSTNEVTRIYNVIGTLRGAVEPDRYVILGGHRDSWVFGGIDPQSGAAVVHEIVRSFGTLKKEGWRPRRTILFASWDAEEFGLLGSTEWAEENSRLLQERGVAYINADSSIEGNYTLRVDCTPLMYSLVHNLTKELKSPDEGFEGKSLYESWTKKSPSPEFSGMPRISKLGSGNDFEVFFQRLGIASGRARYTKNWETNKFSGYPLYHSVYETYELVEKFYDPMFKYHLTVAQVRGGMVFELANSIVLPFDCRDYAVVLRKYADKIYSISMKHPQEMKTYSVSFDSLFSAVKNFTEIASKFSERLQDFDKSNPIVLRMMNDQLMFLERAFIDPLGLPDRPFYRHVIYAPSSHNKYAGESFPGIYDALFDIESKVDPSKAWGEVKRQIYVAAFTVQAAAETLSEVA
Method in brief: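 KD, expressed as pKD, came from 1:1 Langmuir fits of reference- and buffer-blank-subtracted SPR data. The runs were single-cycle kinetics at 25° C in HBST/0.1% DMSO over human PSMA-Fc, captured to ~1000 RU on a peptide-coated CM5 surface and regenerated with 10 mM glycine pH 1.5.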

[3] = pIC50 category of FACS binding, C4-2 cells
[4] = pKD category for PSMA SPR activity assay
[5] = FACS binding, PSMA-expressing C4-2 cells, pIC50 category
[6] = FACS binding, C4-2 cells, competition with 50 nM PSM-0183, category
[7] = SPR, single cycle kinetic, category

Compound: Ac-Thr-Aib-Phe-[Cys-Lys-Arg-Aib-Asn-Cys]-Tle-Thr-Cmp-lys (LuDOTA)-NH2 [PSM-0347]
- pIC50 [C4-2] CAT [1, 5]: A (pIC50 values >6.7)
- pKD CAT ([2]; PSMA SPR assay, pKD category): A (pKD values >7.9)

Compound: CC(=O)N[C@H](C(=O)NC(C)(C)C(=O)N[C@@H](Cc1ccccc1)C(=O)N[C@@H]1CSSC[C@@H](C(=O)N[C@H](C(=O)N[C@H](C(N)=O)[C@@H](C)O)C(C)(C)C)NC(=O)[C@H](CC(N)=O)NC(=O)C(C)(C)NC(=O)[C@H](CCCNC(=N)N)NC(=O)[C@H](CCCCN)NC1=O)[C@@H](C)O [PSM-0348, Ac-Thr-Aib-Phe-[cys-Lys-Arg-Aib-Asn-Cys]-Tle-Thr-NH2] (Ac-T[Aib]F[dC]KR[Aib]NC[Tle]T-NH2; disulfide 4-9)
- IC50 [1, 5]: > 3160 nM
- Kd ([2]; PSMA SPR assay, pKD category): > 501 nM

Compound: C[C@@H](O)[C@H](NC(=O)[C@@H](NC(=O)[C@@H]1CSSC[C@H](NC(=O)[C@H](Cc2ccc(Cl)cc2)NC(=O)C(C)(C)NC(=O)[C@@H](NC(=O)CC2CCN(C(=O)CN3CCN(CC(=O)O)CCN(CC(=O)O)CCN(CC(=O)O)CC3)CC2)[C@@H](C)O)C(=O)N[C@@H](CCCCN)C(=O)N[C@@H](CCCNC(=N)N)C(=O)N[C@H](CCC(=O)O)C(=O)N[C@@H](CC(N)=O)C(=O)N1)C(C)(C)C)C(N)=O [PSM-0260, DOTA-Cmp-Thr-Aib-Pcf-[Cys-Lys-Arg-glu-Asn-Cys]-Tle-Thr-NH2] ({DOTA}-[X1]T[Aib][Phe(4-Cl)]CKR[dE]NC[Tle]T-NH2; disulfide 5-10)
- IC50 [1, 6]: < 200 nM
- Kd [2, 7]: < 12.6 nM

Compound: CCCCNC(=O)N[C@H](C(=O)NC(C)(C)C(=O)N[C@@H](Cc1cccc(Cl)c1)C(=O)N[C@H]1CSSC[C@@H](C(=O)N[C@H](C(=O)N[C@H](C(=O)N2CCC(CC(=O)N[C@H](CCCCNC(=O)CN3CCN(CC(=O)O)CCN(CC(=O)O)CCN(CC(=O)O)CC3)C(N)=O)CC2)[C@@H](C)O)C(C)(C)C)NC(=O)[C@H](CC(N)=O)NC(=O)C(C)(C)NC(=O)[C@H](CCCNC(N)=O)NC(=O)[C@H](CCCCN)NC1=O)[C@@H](C)O [PSM-0207, nBuCAyl-Thr-Aib-Mcf-[Cys-Lys-Cit-Aib-Asn-Cys]-Tle-Thr-Cmp-lys(DOTA)-NH2] ({NHBu-CO}-T[Aib][Phe(3-Cl)]CK[Cit][Aib]NC[Tle]T[X1][dK](DOTA)-NH2; disulfide 4-9)
- IC50 [1, 6]: < 200 nM
- Kd [2, 7]: 12.6 to 126 nM

Other lines, results leading:

- IC50 [1, 3]: < 200 nM
- Kd [2, 4]: < 12.6 nM
Compound: CCC1(CC)NC(=O)[C@H](CCCNC(=N)N)NC(=O)[C@H](CCCCN)NC(=O)[C@@H](NC(=O)[C@H](Cc2ccccc2)NC(=O)C(C)(C)NC(=O)[C@@H](NC(C)=O)[C@@H](C)O)CSSC[C@@H](C(=O)N[C@H](C(=O)N[C@H](C(N)=O)[C@@H](C)O)C(C)(C)C)NC(=O)[C@H](CC(N)=O)NC1=O [PSM-0375, Ac-Thr-Aib-Phe-[Cys-Lys-Arg-Deg-Asn-Cys]-Tle-Thr-NH2] (Ac-T[Aib]FCKR[Deg]NC[Tle]T-NH2; disulfide 4-9)

- IC50 [1, 3]: 1260 to 3160 nM
- Kd [2, 4]: > 501 nM
Compound: CCCC[C@H](NC(=O)[C@@H]1CSSC[C@H](NC(=O)[C@H](Cc2ccccc2)NC(=O)[C@H](C)NC(=O)[C@@H](NC(C)=O)[C@@H](C)O)C(=O)N[C@@H](CCCCN)C(=O)N[C@@H](CCCNC(=N)N)C(=O)N[C@H](C)C(=O)N[C@@H](CC(N)=O)C(=O)N1)C(=O)N[C@H](C(=O)N[C@@H](CC(=O)O)C(N)=O)[C@@H](C)O [PSM-0474, Ac-Thr-Ala-Phe-[Cys-Lys-Arg-ala-Asn-Cys]-Nle-Thr-Asp-NH2]

- IC50 [1, 3]: < 200 nM
- Kd [2, 4]: 12.6 to 126 nM
Compound: CCCC[C@H](NC(=O)[C@@H]1CSSC[C@H](NC(=O)[C@H](Cc2ccccc2)NC(=O)[C@H](C)NC(=O)[C@@H](NC(C)=O)[C@@H](C)O)C(=O)N[C@@H](CCCCN)C(=O)N[C@@H](CCCNC(=N)N)C(=O)N[C@@H](C)C(=O)N[C@@H](CC(N)=O)C(=O)N1)C(=O)N[C@H](C(=O)N[C@H](CC(=O)O)C(N)=O)[C@@H](C)O [PSM-0389, Ac-Thr-Ala-Phe-[Cys-Lys-Arg-Ala-Asn-Cys]-Nle-Thr-asp-NH2]
